The target of data set [1] is T1, HeLa1A1 cell lysate (Homo sapiens, UniProt P22309).
T1 construct: expressed in transfected cells; host or cells: HeLa cells stably overexpressing UGT1A1 (HeLa1A1), used as cell lysate
T1 sequence (P22309 26-533): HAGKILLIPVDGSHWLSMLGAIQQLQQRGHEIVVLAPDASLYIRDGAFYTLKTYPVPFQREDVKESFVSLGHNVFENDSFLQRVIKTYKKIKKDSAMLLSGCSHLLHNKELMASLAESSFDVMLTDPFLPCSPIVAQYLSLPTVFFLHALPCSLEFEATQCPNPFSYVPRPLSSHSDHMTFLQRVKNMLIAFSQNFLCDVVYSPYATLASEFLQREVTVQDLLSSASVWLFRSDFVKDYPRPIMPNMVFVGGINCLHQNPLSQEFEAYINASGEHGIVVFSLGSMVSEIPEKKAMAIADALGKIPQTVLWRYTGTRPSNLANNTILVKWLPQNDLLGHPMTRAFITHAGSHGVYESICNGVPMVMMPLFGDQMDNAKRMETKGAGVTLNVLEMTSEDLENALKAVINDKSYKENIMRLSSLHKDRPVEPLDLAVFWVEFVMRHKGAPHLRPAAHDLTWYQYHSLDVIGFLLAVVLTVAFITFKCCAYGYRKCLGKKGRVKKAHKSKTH
Briefly: DMC-O-glucuronidation kinetics by HeLa1A1 cell lysate. Format: in vitro ADME. Particulars: for Km / Vmax: Michaelis-Menten model; for CLint: Vmax/Km. How it is done:
HeLa1A1 cells were grown in 10-cm dishes for 72 h and then washed and harvested in 50 mM Tris buffer (pH 7.4). The collected cells were sonicated using […] in an ice-cold water bath (4°C). Subsequently, the cell lysates were centrifuged at 13,800 x g for 10 min (4°C). The supernatant was collected for use in the UGT glucuronidation activity assay. The protein concentration was determined using the bicinchoninic acid (BCA) assay (Beyotime, Shanghai, China). Due to the thermal stability of UGT1A1, the glucuronidation activity of UGT1A1 was not affected during sonication process.
(§1) The glucuronidation assay was performed as previously described. Briefly, alamethicin (22 μg/mL), D-saccharic-1,4-lactone (4.4 mM), MgCl2 (0.88 mM), UGT1A1 (1.0 mg/mL) or HeLa1A1 cell lysates (2.3 mg/mL) and DMC (0.5 to 40 μM) were mixed in a 50 mM Tris buffer (pH 7.4). After a preincubation at 37°C for 5 min, UDPGA (3.5 mM) was added to the incubation system, and the mixture was further incubated. After 30 min, the reactions were terminated by the addition of ice-cold acetonitrile (200 μL). The mixed samples were centrifuged at 13,800 x g for 10 min, and the supernatant was analyzed using UHPLC.
(§2) The best model was selected based on a visual inspection of the Eadie-Hofstee plots. Briefly, the rates (V) of glucuronide formation at various substrate concentrations (S) were fitted based on the standard Eq (3). Km represents the Michaelis-Menten constant and Vmax represents the maximum rate of glucuronidation. The intrinsic clearance (CLint) was derived from Vmax/Km. Model fitting and parameter estimation were performed by GraphPad Prism V5 software (SanDiego, CA, USA).

Data set [2] has as its system HeLa1A1 cells. Description: Toxicity of DMC toward HeLa1A1 cells during excretion experiments. The data set is classed as cell-based, human. The following applies: DMC 4 μM.
Details of data set [3]: method as in PMID 24480327. The following applies: 2 g curcuminoids incl. 12% DMC orally, two healthy volunteers; below detection limit; cited from earlier work.
On the set-up of data set [4]: method as in earlier work. The following applies: cited from earlier work.
Data set [5] deals with UGT1A1. More on the design: method as in PMID 17628876. The following applies: cited from earlier work.
In data set [6] the test system is UGT1A3. Details: method as in PMID 17628876. Particulars: cited from earlier work.
The test system of data set [7] is UGT1A8. More on the design: method as in PMID 17628876. The following applies: cited from earlier work.
Data set [8] deals with UGT1A10. Details: method as in PMID 17628876. The following applies: cited from earlier work.
The subject of data set [9] is UGT2B7. More on the design: method as in PMID 17628876. The following applies: cited from earlier work.
For data set [10], the system named is CYP2C9. More on the design: method as in PMID 21287405. Particulars: human CYP2C9; cited from earlier work.
The subject of data set [11] is CYP3A4. More on the design: method as in PMID 21287405. The following applies: human CYP3A4; cited from earlier work.
In data set [12] the test system is CYP1A2. Details: method as in PMID 21287405. The following applies: human CYP1A2; cited from earlier work.
In data set [13] the test system is CYP3As. Details: method as in PMID 18480186. Particulars: cited from earlier work.
For data set [14], the system named is 2C9. Details: method as in PMID 18480186. The following applies: cited from earlier work.
In data set [15] the test system is SULTs. Details: method as in PMID 18480186. The following applies: cited from earlier work.
For data set [16], the system named is UGTs. Details: method as in PMID 18480186. Particulars: cited from earlier work.
The test system of data set [17] is human intestinal P-glycoprotein (P-gp). Details: method as in PMID 19879740. The following applies: cited from earlier work.
The target in data set [18] is T2, UGT1A1 (Homo sapiens, UniProt P22309).
T2 sequence (P22309 26-533): T1 sequence (P22309 26-533)
Description: DMC-O-glucuronidation kinetics by recombinant UGT1A1. The following applies: for CLint: Vmax/Km; for Vmax: UGT1A1, Michaelis-Menten model. Details: purchased Corning Biosciences. Format: in vitro ADME. The procedure:
as §1, §2

Data set [19] concerns BCRP transporter. More on the design: method as in PMID 25587128. Particulars: cited from earlier work.
Data set [20] has as its system MRP1. Details: method as in PMID 26502886. The following applies: MRP1-mediated transport; cited from earlier work.
Data set [21] has as its system MRP2. Details: method as in PMID 26502886. Particulars: MRP2-mediated transport; cited from earlier work.
Data set [22] concerns the target T3, BCRP (Homo sapiens, UniProt Q9UNQ0).
T3 sequence (Q9UNQ0 1-655): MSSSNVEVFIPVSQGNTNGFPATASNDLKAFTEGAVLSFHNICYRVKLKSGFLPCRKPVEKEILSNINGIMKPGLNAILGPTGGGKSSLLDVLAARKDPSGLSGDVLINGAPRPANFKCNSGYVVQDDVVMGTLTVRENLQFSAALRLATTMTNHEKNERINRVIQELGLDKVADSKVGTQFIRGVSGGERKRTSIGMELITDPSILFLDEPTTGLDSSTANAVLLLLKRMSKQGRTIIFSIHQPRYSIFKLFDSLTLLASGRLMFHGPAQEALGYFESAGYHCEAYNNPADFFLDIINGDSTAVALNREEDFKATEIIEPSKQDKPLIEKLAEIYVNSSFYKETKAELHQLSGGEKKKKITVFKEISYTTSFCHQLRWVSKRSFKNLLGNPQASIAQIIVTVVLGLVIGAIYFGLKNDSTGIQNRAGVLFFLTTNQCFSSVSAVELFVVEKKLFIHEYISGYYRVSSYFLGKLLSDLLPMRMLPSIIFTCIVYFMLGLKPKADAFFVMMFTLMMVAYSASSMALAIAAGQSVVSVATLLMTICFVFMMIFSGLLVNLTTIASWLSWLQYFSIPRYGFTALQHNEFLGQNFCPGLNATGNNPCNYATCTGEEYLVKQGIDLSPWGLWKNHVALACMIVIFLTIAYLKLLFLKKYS
Details: method as in PMID 28925930. The following applies: following curcumin pretreatment; subjects with ABCG2 421CC genotype; cited from earlier work.

The mark [23] stands for this setting: formation of G1, HeLa1A1 cell lysate.
The mark [24] stands for this setting: formation of G2, HeLa1A1 cell lysate.

Read-outs that look alike come from different tables or passages of the source. A value given as a limit tells only on which side of the number the result lay.

On to Demethoxycurcumin [DMC], for which the Km stood at 5 ± 1.3 µM in data set [1] (setting [23]); 3.8 ± 0.9 µM in data set [1] (setting [24]); 4.5 ± 0.9 µM in [18] (formation of G1, UGT1A1, Michaelis-Menten model); 2.7 ± 0.5 µM in [18] (formation of G2, UGT1A1, Michaelis-Menten model). Besides, the Vmax in data set [1] (setting [23]) was 264.5±22.3 ( ^***) pmol/min/mg; in data set [1] (setting [24]), 167.4±11.3 (^###) pmol/min/mg; in data set [18] (formation of G1 from DMC (0.5-40 μM)), 1006.0 ± 62.8 pmol/min/mg; in data set [18] (formation of G2 from DMC (0.5-40 μM)), 576.1 ± 27.0 pmol/min/mg. Also, the CLint in data set [1] (setting [23]) was 53.0±14.5 ( ^***) μL/min/mg; in [1] (setting [24]), 43.9±10.4 (^###) μL/min/mg; in data set [18] (formation of G1, UGT1A1), 225.9 ± 47.3 µL/min/mg; in [18] (formation of G2, UGT1A1) it was 212.6 ± 38.3 µL/min/mg. In [2], the “toxicity toward HeLa1A1 cells” value is recorded as “did not exert significant toxicity”. For the same molecule, in [3], the DMC concentration was below 2.0 ng/mL. Also, the “tissue distribution of free DMC” value in data set [4] (heart) was around 140 ng/g; in [4] (intestine), around 150000 ng/g; in data set [4] (kidney) it was around 80 ng/g; in [4] (liver), “approximately 120 ng/g”; in data set [4] (spleen), around 50 ng/g. The “catalytic activity (glucuronidation of DMC)” value in data set [5] was “approximately 1600 pmol/min/mg”; in [6], “less than 1100 pmol/min/mg”; in data set [7], “less than 1100 pmol/min/mg”; in data set [8], “less than 1100 pmol/min/mg”; in data set [9], “less than 1100 pmol/min/mg”. The IC50 in data set [10] was 1.4 µM; in data set [11], 7 µM; in data set [12], 34 µM; in data set [13], 31.5 µM; in data set [14], 8.8 µM; in [15] it was 1.7 µM. Moreover, the IC50 in [16] is 13.9 µM. Further, the “inhibition of P-gp activities” value in [17] is “capable of inhibiting”.
On to `COc1cc(/C=C/C(=O)CC(=O)/C=C/c2ccc(O)c(OC)c2)ccc1O` [curcumin], for which the Ki in data set [19] was 0.7 µM. For the same molecule, the results for the IC50 in data set [20] and in [21] were 15 µM and 5 µM, respectively. The “increase in AUC of orally administered salazosulfapyridine (SASP)” value in data set [22] is reported as 3.2 fold.

One may read the Km as the concentration of substrate that gives half-maximal velocity. As a reminder, the IC50 is the point on the concentration scale where inhibition reaches its midpoint. In general, Ki refers to a measure of affinity in units of concentration, obtained from inhibition or displacement.

The values are drawn from article PMC6544300, “Mechanism of the efflux transport of demethoxycurcumin-O-glucuronides in HeLa cells stably transfected with UDP-glucuronosyltransferase 1A1” (PLoS ONE, 2019).
